Converted amounts (≈) assume the structure as drawn. A value given as a limit tells only on which side of the number the result lay.

Consider 22 compounds from patent publication US20220363665A1, “QUINOLINE COMPOUNDS FOR THE TREATMENT OF AUTOIMMUNE DISEASE” (Hoffmann-La Roche Inc., priority 2019, published 2022).

One data set in a line: LYSA solubility assay. It is filed as physicochemical. The settings on record: for solubility thermodynamic: 0.05 M phosphate buffer, pH 6.5, aqueous buffer, thermodynamic from solid; for LYSA: 0.05 M phosphate buffer (pH 6.5). The procedure:
LYSA study is used to determine the aqueous solubility of tested compounds. Samples are prepared in duplicate from 10 mM DMSO stock solution. After evaporation of DMSO with a centrifugal vacuum evaporator, compounds are dissolved in a 0.05 M phosphate buffer (pH 6.5), stirred for one hr and shaken for two hrs. After one night, the solutions are filtered using a microtiter filter plate. Then the filtrate and its 1/10 dilution are analyzed by HPLC-UV. In addition, a four-point calibration curve is prepared from the 10 mM stock solutions and used for the solubility determination of the compounds. The results are in μg/mL. In case the percentage of sample measured in solution after evaporation divided by the calculated maximum of sample amount is bigger than 80%, the solubility is reported as bigger than this value.

The next data set addresses T1, human TLR7 (Homo sapiens, UniProt Q9NYK1).
T1 construct: host or cells: HEK293 (HEK-Blue hTLR7)
T1 sequence (Q9NYK1 27-1049): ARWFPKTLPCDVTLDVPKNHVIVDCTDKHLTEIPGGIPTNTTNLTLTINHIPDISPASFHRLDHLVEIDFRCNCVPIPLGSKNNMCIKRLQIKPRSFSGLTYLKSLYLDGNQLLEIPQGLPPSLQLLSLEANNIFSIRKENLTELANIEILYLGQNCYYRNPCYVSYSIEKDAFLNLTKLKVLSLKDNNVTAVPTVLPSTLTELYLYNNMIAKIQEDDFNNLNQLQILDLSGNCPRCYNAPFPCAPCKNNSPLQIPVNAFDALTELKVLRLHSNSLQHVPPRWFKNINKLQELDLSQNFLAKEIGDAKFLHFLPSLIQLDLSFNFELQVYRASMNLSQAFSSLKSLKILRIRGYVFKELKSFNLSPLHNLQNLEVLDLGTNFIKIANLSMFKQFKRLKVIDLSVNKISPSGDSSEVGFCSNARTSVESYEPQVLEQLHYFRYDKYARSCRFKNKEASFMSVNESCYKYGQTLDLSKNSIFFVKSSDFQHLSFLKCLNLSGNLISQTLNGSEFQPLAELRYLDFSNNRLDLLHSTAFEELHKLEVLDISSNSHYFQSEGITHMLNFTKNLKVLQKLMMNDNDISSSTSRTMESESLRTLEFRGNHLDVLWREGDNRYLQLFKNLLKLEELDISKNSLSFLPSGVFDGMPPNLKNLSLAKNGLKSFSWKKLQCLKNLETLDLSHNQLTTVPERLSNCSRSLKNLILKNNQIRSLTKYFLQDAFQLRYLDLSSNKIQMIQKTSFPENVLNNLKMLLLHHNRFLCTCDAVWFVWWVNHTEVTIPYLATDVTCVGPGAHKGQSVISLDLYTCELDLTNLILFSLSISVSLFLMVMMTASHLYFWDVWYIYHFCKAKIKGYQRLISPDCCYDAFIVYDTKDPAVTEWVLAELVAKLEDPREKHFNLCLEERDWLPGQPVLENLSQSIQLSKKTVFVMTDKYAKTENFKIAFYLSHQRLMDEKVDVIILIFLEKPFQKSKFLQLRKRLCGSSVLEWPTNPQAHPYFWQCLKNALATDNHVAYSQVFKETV
The data set is described as follows: HEK293-Blue-hTLR-7 cells assay (SEAP reporter, R848 stimulation). The format is cell-based. The settings on record: HEK293-Blue-hTLR7 cells, R848, 20 hrs. The procedure:
The following tests were carried out in order to determine the activity of the compounds of formula (I) in HEK293-Blue-hTLR-7/8/9 cells assay.
HEK293-Blue-hTLR-7 Cells Assay:
A stable HEK293-Blue-hTLR-7 cell line was purchased from InvivoGen (Cat. #: hkb-htlr7, San Diego, Calif. USA). These cells were originally designed for studying the stimulation of human TLR7 by monitoring the activation of NF-κB. A SEAP (secreted embryonic alkaline phosphatase) reporter gene was placed under the control of the IFN-β minimal promoter fused to five NF-κB and AP-1-binding sites. The SEAP was induced by activating NF-κB and AP-1 via stimulating HEK-Blue hTLR7 cells with TLR7 ligands. Therefore the reporter expression was declined by TLR7 antagonist under the stimulation of a ligand, such as R848 (Resiquimod), for incubation of 20 hrs. The cell culture supernatant SEAP reporter activity was determined using QUANTI-Blue™ kit (Cat. #: rep-qbl, Invivogen, San Diego, Calif., USA) at a wavelength of 640 nm, a detection medium that turns purple or blue in the presence of alkaline phosphatase.
HEK293-Blue-hTLR7 cells were incubated at a density of 250,000˜450,000 cells/mL in a volume of 170 μL in a 96-well plate in Dulbecco's Modified Eagle's medium (DMEM) containing 4.5 g/L glucose, 50 U/mL penicillin, […], […], 2 mM L-glutamine, 10% (v/v) heat-inactivated fetal bovine serum with addition of 20 μL A test compound in a serial dilution in the presence of final DMSO at 1% and 10 μL of 20 uM R848 in above DMEM, perform incubation under 37° C. in a CO2 incubator for 20 hrs. Then 20 μL of the supernatant from each well was incubated with 180 μQuanti-blue substrate solution at 37° C. for 2 hrs and the absorbance was read at 620˜655 nm using a spectrophotometer. The signalling pathway that TLR7 activation leads to downstream NF-κB activation has been widely accepted, and therefore similar reporter assay was modified for evaluating TLR7 antagonist.

Consider `C[C@@H]1CN(c2ccc(C(F)(F)F)c3ncccc23)C[C@H](C(=O)N2CCC(N)CC2)O1` [Example 12, (4-amino-1-piperidyl)-[(2R,6R)-6-methyl-4-[8-(trifluoromethyl)-5-quinolyl]morpholin-2-yl]methanone], for which the thermodynamic solubility – broadly, solubility found after equilibrating the solid with the medium – in the data set “LYSA solubility assay” is over 665 µg/mL. In addition, 0.15 µM corresponded to half-maximal inhibition against human TLR7 (IC50).
On to `C[C@@H]1CN(c2ccc(C(F)(F)F)c3ncccc23)C[C@H](C(=O)NC2CC3CCCC(C2)N3)O1` (single isomer, unassigned) [Example 34B], for which the LYSA in the data set “LYSA solubility assay” was over 610.0 µg/mL. Further, the IC50 (usually the concentration that gives 50% inhibition) on human TLR7 came to 0.007 µM.
In turn, `C[C@@H]1CN(c2ccc(C(F)(F)F)c3ncccc23)C[C@H](C(=O)N[C@H]2CNC[C@H]2F)O1` (single isomer, unassigned) [Example 2B] showed a solubility (thermodynamic) in “LYSA solubility assay” of over 625 µg/mL. The compound also showed an IC50 on human TLR7 of 0.015 µM.
For `C[C@@H]1CN(c2ccc(Br)c3ncccc23)C[C@H](C(=O)NC2CCN(C)CC2)O1` [Example 42, (2R,6R)-4-(8-bromo-5-quinolyl)-6-methyl-N-(1-methyl-4-piperidyl)morpholine-2-carboxamide], in that order: over 550 µg/mL and 0.005 µM.
`C[C@@H]1CN(c2ccc(C(F)(F)F)c3ncccc23)C[C@H](C(=O)NC2CC3CCC(C2)N3)O1` (single isomer, unassigned) [Example 47B] had an LYSA in “LYSA solubility assay” of over 605.0 µg/mL. In addition, the IC50 against human TLR7 was under 0.003 µM.
For the compound `C[C@@H]1CN(c2ccc(C(F)(F)F)c3ncccc23)C[C@H](C(=O)N2CCC3(CCNC3)C2)O1` (some centres unmarked) [Example 36], the thermodynamic solubility in “LYSA solubility assay” was over 595 µg/mL. For the same compound, 0.13 µM corresponded to half-maximal inhibition on human TLR7 (IC50).
In the case of `C[C@@H]1CN(c2ccc(C(F)(F)F)c3ncccc23)C[C@H](C(=O)N2CC(N)C2)O1` [Example 7, (3-aminoazetidin-1-yl)-[(2R,6R)-6-methyl-4-[8-(trifluoromethyl)-5-quinolyl]morpholin-2-yl]methanone], the thermodynamic solubility in the data set “LYSA solubility assay” was over 605 µg/mL. In addition, the IC50 at human TLR7 was found to be 0.063 µM.
On to `C[C@@H]1CN(c2ccc(C(F)(F)F)c3ncccc23)C[C@H](C(=O)NC2CC3CCCC(C2)N3)O1` (single isomer, unassigned) [Example 34A], for which the solubility (thermodynamic) in the data set “LYSA solubility assay” was over 620 µg/mL. The compound further registered an IC50 against human TLR7 of 0.004 µM.
For `C[C@@H]1CN(c2ccc(C(F)(F)F)c3ncccc23)C[C@H](C(=O)NCC2COCCN2C)O1` (stereo partly drawn) [Example 11, (2R,6R)-6-methyl-N-[(4-methylmorpholin-3-yl)methyl]-4-[8-(trifluoromethyl)-5-quinolyl]morpholine-2-carboxamide], in that order: over 740 µg/mL and 0.051 µM.
In the data set “LYSA solubility assay”, `C[C@@H]1CN(c2ccc(C(F)(F)F)c3ncccc23)C[C@H](C(=O)NC2CCN(C)CC2)O1` [Example 5, (2R,6R)-6-methyl-N-(1-methyl-4-piperidyl)-4-[8-(trifluoromethyl)-5-quinolyl]morpholine-2-carboxamide] showed a solubility (thermodynamic) of over 655 µg/mL. Further, the IC50 against human TLR7 is 0.007 µM.
On the same counts, the results for `C[C@@H]1CN(c2ccc(C(F)(F)F)c3ncccc23)C[C@H](C(=O)NCC2CNCC2(F)F)O1` (stereo partly drawn) [Example 29, (2R,6R)-N-[(4,4-difluoropyrrolidin-3-yl)methyl]-6-methyl-4-[8-(trifluoromethyl)-5-quinolyl]morpholine-2-carboxamide] are 565 µg/mL (≈ 1230 µM) and 0.037 µM.
As to `CC(NC(=O)[C@H]1CN(c2ccc(C(F)(F)F)c3ncccc23)C[C@@H](C)O1)C1CN(C)CCO1` (single isomer, unassigned) [Example 35B], in the data set “LYSA solubility assay”, the LYSA was over 625.0 µg/mL. On human TLR7, inhibition was half-maximal at 0.065 µM (IC50).
The compound `C[C@@H]1CN(c2ccc(C(F)(F)F)c3ncccc23)C[C@H](C(=O)NC2CCCNCC2)O1` (stereo partly drawn) [Example 8, (2R,6R)-N-(azepan-4-yl)-6-methyl-4-[8-(trifluoromethyl)-5-quinolyl]morpholine-2-carboxamide] returned a thermodynamic solubility in the data set “LYSA solubility assay” of over 680 µg/mL. This compound also had an IC50 on human TLR7 of 0.004 µM.
On the same counts, the results for `C[C@@H]1CN(c2ccc(Cl)c3ncccc23)C[C@H](C(=O)N[C@H]2CNC[C@H]2F)O1` [Example 22, (2R,6R)-4-(8-chloro-5-quinolyl)-N-[(3S,4R)-4-fluoropyrrolidin-3-yl]-6-methyl-morpholine-2-carboxamide] are over 455 µg/mL and 0.039 µM.
On the same counts, the results for `C[C@@H]1CN(c2ccc(C(F)(F)F)c3ncccc23)C[C@H](C(=O)NC2C3CNCC2COC3)O1` (single isomer, unassigned) [Example 46A] are over 650 µg/mL and 0.008 µM.
For `C[C@@H]1CN(c2ccc(C(F)(F)F)c3ncccc23)C[C@H](C(=O)NC2C[C@H]3C[C@@H]2CN3)O1` (some centres unmarked) [Example 44], in that order: over 600 µg/mL and 0.018 µM.
As to `C[C@@H]1CN(c2ccc(Br)c3ncccc23)C[C@H](C(=O)NC2CNCC2F)O1` (stereo partly drawn) [Example 41, cis-(2R,6R)-4-(8-bromo-5-quinolyl)-N-[4-fluoropyrrolidin-3-yl]-6-methyl-morpholine-2-carboxamide], the thermodynamic solubility in the data set “LYSA solubility assay” was over 675 µg/mL. The compound also came in with an IC50 against human TLR7 of 0.015 µM.
For `C[C@@H]1CN(c2ccc(Cl)c3ncccc23)C[C@H](C(=O)NC2CCCNCC2)O1` (stereo partly drawn) [Example 25, (2R,6R)-N-(azepan-4-yl)-4-(8-chloro-5-quinolyl)-6-methyl-morpholine-2-carboxamide], in that order: over 470 µg/mL and 0.012 µM.
On the same counts, the results for `C[C@@H]1CN(c2ccc(C(F)(F)F)c3ncccc23)C[C@H](C(=O)NC2CC3CNCC(C3)C2)O1` (stereo partly drawn) [Example 37, (2R,6R)-N-(3-azabicyclo[3.3.1]nonan-7-yl)-6-methyl-4-[8-(trifluoromethyl)-5-quinolyl]morpholine-2-carboxamide] are over 660 µg/mL and 0.002 µM.
For `C[C@@H]1CN(c2ccc(C(F)(F)F)c3ncccc23)C[C@H](C(=O)NC[C@@H]2CC(F)(F)CN2)O1` [Example 30], in that order: 375 µg/mL (≈ 818 µM) and 0.37 µM.
In turn, `C[C@@H]1CN(c2ccc(C(F)(F)F)c3ncccc23)C[C@H](C(=O)N[C@@H]2CNC[C@@H]2F)O1` (single isomer, unassigned) [Example 2A] came in with a solubility (thermodynamic) in “LYSA solubility assay” of over 580 µg/mL. This compound also yielded an IC50 against human TLR7 of 0.041 µM.
For `C[C@@H]1CN(c2ccc(C(F)(F)F)c3ncccc23)C[C@H](C(=O)NC2CNCC(F)(F)C2)O1` (stereo partly drawn) [Example 28, (2R,6R)-N-(5,5-difluoro-3-piperidyl)-6-methyl-4-[8-(trifluoromethyl)-5-quinolyl]morpholine-2-carboxamide], in that order: 480 µg/mL (≈ 1050 µM) and 0.2 µM.
